For one assay, the target named is human CB1 receptors (Homo sapiens (Human), UniProt P21554). In words: functional cAMP assay, CHO cells expressing human CB1 receptors. Type of assay: cell-based. As to the method:
(§1) CHO cells expressing human CB1 or CB2 receptors are seeded 17-24 hours prior to the experiment 50.000 cells per well in a black 96 well plate with flat clear bottom (Corning Costar #3904) in DMEM (Invitrogen No. 31331), 1×HT supplement, with 10% fetal calf serum and incubated at 5% CO2 and 37° C. in a humidified incubator. The growth medium was exchanged with Krebs Ringer Bicarbonate buffer with 1 mM IBMX and incubated at 30° C. for 30 min. Compounds were added to a final assay volume of 100 μl and incubated for 30 min at 30° C. Using the cAMP-Nano-TRF detection kit the assay (Roche Diagnostics) was stopped by the addition of 50 μl lysis reagent (Tris, NaCl, 1.5% Triton X100, 2.5% NP40, 10% NaN3) and 50 μl detection solutions (20 μM mAb Alexa700-cAMP 1:1, and 48 μM Ruthenium-2-AHA-cAMP) and shaken for 2 h at room temperature. The time-resolved energy transfer is measured by a TRF reader (Evotec Technologies GmbH), equipped with a ND:YAG laser as excitation source. The plate is measured twice with the excitation at 355 nm and at the emission with a delay of 100 ns and a gate of 100 ns, total exposure time 10 s at 730 (bandwidth 30 nm) or 645 nm (bandwidth 75 nm), respectively. The FRET signal is calculated as follows: FRET=T730-Alexa730-P(T645-B645) with P=Ru730-B730/Ru645-B645, where T730 is the test well measured at 730 nM, T645 is the test well measured at 645 nm, B730 and B645 are the buffer controls at 730 nm and 645 nm, respectively. cAMP content is determined from the function of a standard curve spanning from 10 μM to 0.13 nM cAMP.
(§2) EC50 values were determined using Activity Base analysis (ID Business Solution, Limited). The EC50 values for a wide range of cannabinoid agonists generated from this assay were in agreement with the values published in the scientific literature.
For orientation: Cyclic AMP is a second messenger, typically raised through Gs and lowered through Gi signalling.

The target in another assay is human CB2 receptors (Homo sapiens (Human), UniProt P34972). The experiment in a line: functional cAMP assay, CHO cells expressing human CB2 receptors. Type of assay: cell-based. As to the method:
as §1, §2

Structures are written as SMILES.

The term EC50 denotes the concentration giving half of the maximal effect.

Chain of human CB2 receptors (P34972 whole entry): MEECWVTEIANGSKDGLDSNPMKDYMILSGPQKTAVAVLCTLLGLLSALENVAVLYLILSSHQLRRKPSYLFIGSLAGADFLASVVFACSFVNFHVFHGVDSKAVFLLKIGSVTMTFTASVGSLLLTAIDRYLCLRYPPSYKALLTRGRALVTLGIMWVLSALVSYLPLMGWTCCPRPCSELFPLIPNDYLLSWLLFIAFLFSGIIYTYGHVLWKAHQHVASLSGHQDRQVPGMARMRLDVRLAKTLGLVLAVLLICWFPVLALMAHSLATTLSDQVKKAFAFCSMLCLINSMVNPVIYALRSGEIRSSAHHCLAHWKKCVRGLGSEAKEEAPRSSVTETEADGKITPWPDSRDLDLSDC
Chain of human CB1 receptors (P21554 whole entry): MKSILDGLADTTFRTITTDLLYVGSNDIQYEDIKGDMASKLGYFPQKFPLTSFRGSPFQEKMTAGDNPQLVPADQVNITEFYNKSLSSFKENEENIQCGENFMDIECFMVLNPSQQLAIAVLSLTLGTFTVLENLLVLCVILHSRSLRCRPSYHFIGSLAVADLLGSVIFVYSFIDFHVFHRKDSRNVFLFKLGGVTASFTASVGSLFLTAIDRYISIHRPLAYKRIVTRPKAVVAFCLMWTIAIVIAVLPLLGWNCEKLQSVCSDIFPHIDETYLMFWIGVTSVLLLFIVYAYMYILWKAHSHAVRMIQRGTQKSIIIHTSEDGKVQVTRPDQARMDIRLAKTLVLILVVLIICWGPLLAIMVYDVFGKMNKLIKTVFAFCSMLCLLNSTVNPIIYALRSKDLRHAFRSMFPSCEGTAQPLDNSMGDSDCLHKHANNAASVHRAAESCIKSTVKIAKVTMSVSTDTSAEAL

For the molecule `NC(=O)[C@@H]1C[S@+]([O-])CN1C(=O)c1ccc(C2CC2)c(OCC2CC2)n1` (single isomer, unassigned) [Example 116, (1S,4R)-3-(5-Cyclopropyl-6-cyclopropylmethoxy-pyridine-2-carbonyl)-1-oxo-1λ^4-thiazolidine-4-carboxylic acid amide or (1R,4S)-3-(5-cyclopropyl-6-cyclopropylmethoxy-pyridine-2-carbonyl)-1-oxo-1λ^4-thiazolidine-4-carboxylic acid amide], the EC50 on human CB1 receptors is above 10 µM; on human CB2 receptors, 0.671 µM.

Consider `CN(C(=O)c1ccc(N2CC(F)(F)C2)c(OCC2CC2)n1)C(C)(C)C` [Example 1, 6-Cyclopropylmethoxy-5-(3,3-difluoro-azetidin-1-yl)-pyridine-2-carboxylic acid tert-butyl-methyl-amide], for which the EC50 on human CB1 receptors was above 10 µM; at human CB2 receptors, 0.0046 µM.

For the molecule `CN(C)C(=O)c1ccc(N2CC(F)(F)C2)c(OCC2CC2)n1` [Example 2, 6-Cyclopropylmethoxy-5-(3,3-difluoro-azetidin-1-yl)-pyridine-2-carboxylic acid dimethylamide], the results for the EC50 on human CB1 receptors and at human CB2 receptors were above 10 µM and 0.297 µM, respectively.

Take `CN(C(=O)c1ccc(C2CC2)c(OCC2CC2)n1)C(C)(C)C` [Example 3, 5-Cyclopropyl-6-cyclopropylmethoxy-pyridine-2-carboxylic acid tert-butyl-methyl-amide]: the EC50 was above 10 µM at human CB1 receptors and 0.0072 µM on human CB2 receptors.

Consider `CN(C(=O)c1ccc(C2CC2)c(OCC2CCCO2)n1)C(C)(C)C` (centres unmarked) [Example 4, 5-Cyclopropyl-6-(tetrahydro-furan-2-ylmethoxy)-pyridine-2-carboxylic acid tert-butyl-methyl-amide], for which the EC50 on human CB1 receptors was above 10 µM; on human CB2 receptors, 0.0085 µM.

On to `CN(C(=O)c1ccc(C2CC2)c(Cc2ccc(F)cc2)n1)C(C)(C)C` [Example 5, 5-Cyclopropyl-6-(4-fluoro-benzyl)-pyridine-2-carboxylic acid tert-butyl-methyl-amide], for which the EC50 at human CB1 receptors turned out to be 0.268 µM; at human CB2 receptors it was 0.0008 µM.

With `CC(C)CS(=O)(=O)c1nc(C(=O)N(C)C(C)(C)C)ccc1C1CC1` [Example 6, 5-Cyclopropyl-6-(2-methyl-propane-1-sulfonyl)-pyridine-2-carboxylic acid tert-butyl-methyl-amide], the EC50 at human CB1 receptors was above 10 µM; on human CB2 receptors it was 0.106 µM.

With `CCN(C(=O)c1ccc(N2CC(F)(F)C2)c(OCC2CC2)n1)C(C)(C)C` [Example 7, 6-Cyclopropylmethoxy-5-(3,3-difluoro-azetidin-1-yl)-pyridine-2-carboxylic acid tert-butyl-ethyl-amide], the values for the EC50 at human CB1 receptors and on human CB2 receptors were 0.292 µM and 0.0006 µM, respectively.

As to `COCC(C)(C)N(C)C(=O)c1ccc(N2CC(F)(F)C2)c(OCC2CC2)n1` [Example 9, 6-Cyclopropylmethoxy-5-(3,3-difluoro-azetidin-1-yl)-pyridine-2-carboxylic acid (2-methoxy-1,1-dimethyl-ethyl)-methyl-amide], the EC50 on human CB1 receptors was above 10 µM; on human CB2 receptors it was 0.0038 µM.

As to `O=C(c1ccc(N2CC(F)(F)C2)c(OCC2CC2)n1)N1CCC12COC2` [Example 10, [6-Cyclopropylmethoxy-5-(3,3-difluoro-azetidin-1-yl)-pyridin-2-yl]-(6-oxa-1-aza-spiro[3.3]hept-1-yl)-methanone], the EC50 on human CB1 receptors was above 10 µM; on human CB2 receptors it was 0.661 µM.

For the molecule `O=C(c1ccc(N2CC(F)(F)C2)c(OCC2CC2)n1)N1CC2(COC2)C1` [Example 11, [6-Cyclopropylmethoxy-5-(3,3-difluoro-azetidin-1-yl)-pyridin-2-yl]-(2-oxa-6-aza-spiro[3.3]hept-6-yl)-methanone], the results for the EC50 at human CB1 receptors and on human CB2 receptors were above 10 µM and 0.364 µM, respectively.

For `CN(C(=O)c1ccc(N2CC(F)(F)C2)c(OCC2CC2)n1)C(C)(C)COC(=O)c1ccc(N2CC(F)(F)C2)c(OCC2CC2)n1` [Example 12, 6-Cyclopropylmethoxy-5-(3,3-difluoro-azetidin-1-yl)-pyridine-2-carboxylic acid 2-{[6-cyclopropylmethoxy-5-(3,3-difluoro-azetidin-1-yl)-pyridine-2-carbonyl]-methyl-amino}-2-methyl-propyl ester], the results for the EC50 on human CB1 receptors and on human CB2 receptors were above 10 µM and 0.134 µM, respectively.

Regarding `CC(Oc1nc(C(=O)N(C)C(C)(C)C)ccc1C1CC1)C(F)(F)F` (centres unmarked) [Example 13, 5-Cyclopropyl-6-(2,2,2-trifluoro-1-methyl-ethoxy)-pyridine-2-carboxylic acid tert-butyl-methyl-amide], the EC50 was above 10 µM at human CB1 receptors and 0.119 µM on human CB2 receptors.

Turning to `CC1(C)COCN1C(=O)c1ccc(N2CC(F)(F)C2)c(OCC2CC2)n1` [Example 14, [6-Cyclopropylmethoxy-5-(3,3-difluoro-azetidin-1-yl)-pyridin-2-yl]-(4,4-dimethyl-oxazolidin-3-yl)-methanone], the EC50 is above 10 µM on human CB1 receptors and 0.0073 µM on human CB2 receptors.

Regarding `CN(C(=O)c1ccc(C(F)(F)F)c(OCC2CCCO2)n1)C(C)(C)C` (centres unmarked) [Example 15, 6-(Tetrahydro-furan-2-ylmethoxy)-5-trifluoromethyl-pyridine-2-carboxylic acid tert-butyl-methyl-amide], the EC50 at human CB1 receptors is above 10 µM; at human CB2 receptors, 0.249 µM.

`CN(C(=O)c1ccc(N2CC(F)(F)C2)c(OCC2CC2)n1)C1(C(F)(F)F)CC1` [Example 16, 6-Cyclopropylmethoxy-5-(3,3-difluoro-azetidin-1-yl)-pyridine-2-carboxylic acid methyl-(1-trifluoromethyl-cyclopropyl)-amide]: the EC50 on human CB1 receptors was above 10 µM; on human CB2 receptors it was 0.008 µM.

For the molecule `CC1(C)COCCN1C(=O)c1ccc(N2CC(F)(F)C2)c(OCC2CC2)n1` [Example 17, [6-Cyclopropylmethoxy-5-(3,3-difluoro-azetidin-1-yl)-pyridin-2-yl]-(3,3-dimethyl-morpholin-4-yl)-methanone], the concentration giving a half-maximal response (EC50) at human CB1 receptors is above 10 µM; at human CB2 receptors, 0.0052 µM.

On to `CC1(C)CCCN1C(=O)c1ccc(N2CC(F)(F)C2)c(OCC2CC2)n1` [Example 18, [6-Cyclopropylmethoxy-5-(3,3-difluoro-azetidin-1-yl)-pyridin-2-yl]-(2,2-dimethyl-pyrrolidin-1-yl)-methanone], for which the EC50 is above 10 µM on human CB1 receptors and 0.0006 µM on human CB2 receptors.

For the molecule `COCCN(C(=O)c1ccc(N2CC(F)(F)C2)c(OCC2CC2)n1)C(C)(C)CO` [Example 19, 6-Cyclopropylmethoxy-5-(3,3-difluoro-azetidin-1-yl)-pyridine-2-carboxylic acid (2-hydroxy-1,1-dimethyl-ethyl)-(2-methoxy-ethyl)-amide], the EC50 on human CB1 receptors is above 10 µM; at human CB2 receptors it was 0.856 µM.

For `COCCN(C(=O)c1ccc(N2CC(F)(F)C2)c(OCC2CC2)n1)C(C)(C)C` [Example 20, 6-Cyclopropylmethoxy-5-(3,3-difluoro-azetidin-1-yl)-pyridine-2-carboxylic acid tert-butyl-(2-methoxy-ethyl)-amide], the EC50 at human CB1 receptors is above 10 µM; at human CB2 receptors, 0.0053 µM.

Regarding `CCN(C(=O)c1ccc(N2CC(F)(F)C2)c(OCC2CC2)n1)C1(C(F)(F)F)CC1` [Example 21, 6-Cyclopropylmethoxy-5-(3,3-difluoro-azetidin-1-yl)-pyridine-2-carboxylic acid ethyl-(1-trifluoromethyl-cyclopropyl)-amide], the EC50 was above 10 µM on human CB1 receptors and 0.0028 µM on human CB2 receptors.

In the case of `O=C(c1ccc(N2CC(F)(F)C2)c(OCC2CC2)n1)N(Cc1ccccc1)C1(C(F)(F)F)CC1` [Example 22, 6-Cyclopropylmethoxy-5-(3,3-difluoro-azetidin-1-yl)-pyridine-2-carboxylic acid benzyl-(1-trifluoromethyl-cyclopropyl)-amide], the EC50 on human CB1 receptors was above 10 µM; at human CB2 receptors, 0.025 µM.

With `CCOC(=O)CN(C(=O)c1ccc(N2CC(F)(F)C2)c(OCC2CC2)n1)C(C)(C)C` [Example 23, {tert-Butyl-[6-cyclopropylmethoxy-5-(3,3-difluoro-azetidin-1-yl)-pyridine-2-carbonyl]-amino}-acetic acid ethyl ester], the figures for the 50% effective concentration (EC50) at human CB1 receptors and at human CB2 receptors were above 10 µM and 0.0058 µM, respectively.

As for `CC(C)(C)N(CC(=O)O)C(=O)c1ccc(N2CC(F)(F)C2)c(OCC2CC2)n1` [Example 24, {tert-Butyl-[6-cyclopropylmethoxy-5-(3,3-difluoro-azetidin-1-yl)-pyridine-2-carbonyl]-amino}-acetic acid], the values for the EC50 at human CB1 receptors and at human CB2 receptors were above 10 µM and 0.34 µM, respectively.

`CC(C)(C)N(Cc1ccccc1)C(=O)c1ccc(N2CC(F)(F)C2)c(OCC2CC2)n1` [Example 25, 6-Cyclopropylmethoxy-5-(3,3-difluoro-azetidin-1-yl)-pyridine-2-carboxylic acid benzyl-tert-butyl-amide]: the EC50 at human CB1 receptors is above 10 µM; at human CB2 receptors, 0.037 µM.

(Values after patent US9303012B2, “Pyridine-2-amides useful as CB2 agonists” (Hoffmann-La Roche Inc., priority 2012, dated 2016).)
